Test results published in patent publication US20190085024A1, “Alpha-Ketoamide Inhibitors Of Cysteine Proteases” (Phelix Therapeutics, priority 2017, published 2019).

How the values were obtained:
Cathepsin L = Cathepsin L (Homo sapiens, UniProt P07711); assay: Cathepsin L enzyme assay; type: biochemical; details: Ki by Morrison equation; pH 5.5, substrate Z-Phe-Arg-Amc; read-out: Cat L
Text: Two wells contained DMSO only for controls.
Velocity was converted to μM/sec.

Calpain = Calpain enzyme assay; type: biochemical; details: Ki by Morrison equation; pH 7.5, 5 mM CaCl2
Cathepsin B = Cathepsin B (Homo sapiens, UniProt P07858); assay: Cathepsin B enzyme assay; details: Cat B (μM), Ki by Morrison equation; pH 6.0, substrate Z-Phe-Arg-Amc
SMA = assay: Fibrosis-SMA Elisa; type: cell-based
Collagen = assay: Fibrosis-Sirius Red Collagen Assay; type: cell-based
[1] = tested on: MARV WT (Marburg Wild Type); assay: organism not typed; type: cell-based; details: read-out: MARV WT (μM) (Marburg Wild Type)
MERS WT = assay: microbe, parasite or virus in culture; type: cell-based; details: Middle East respiratory syndrome-related coronavirus, read-out: MERS WT (μM)
[2] = tested on: EBOV WT (Ebola Wild Type); assay: microbe, parasite or virus in culture; type: cell-based; details: Zaire ebolavirus, read-out: EBOV WT (μM) (Ebola Wild Type)
Cat S = Cat S (Homo sapiens, UniProt P25774); assay: Cat S inhibition; type: biochemical
Sequence of Cat S (P25774 115-331): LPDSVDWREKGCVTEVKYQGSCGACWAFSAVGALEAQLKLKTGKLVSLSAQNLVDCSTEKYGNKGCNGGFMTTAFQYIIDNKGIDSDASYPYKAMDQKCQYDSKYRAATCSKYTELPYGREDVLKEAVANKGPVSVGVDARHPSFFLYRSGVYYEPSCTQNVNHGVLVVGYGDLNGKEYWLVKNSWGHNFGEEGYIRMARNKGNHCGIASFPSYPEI

Cat K = biological target: T1, Cat K (Homo sapiens, UniProt P43235); assay: Cat K inhibition; type: biochemical
T1 sequence (P43235 115-329): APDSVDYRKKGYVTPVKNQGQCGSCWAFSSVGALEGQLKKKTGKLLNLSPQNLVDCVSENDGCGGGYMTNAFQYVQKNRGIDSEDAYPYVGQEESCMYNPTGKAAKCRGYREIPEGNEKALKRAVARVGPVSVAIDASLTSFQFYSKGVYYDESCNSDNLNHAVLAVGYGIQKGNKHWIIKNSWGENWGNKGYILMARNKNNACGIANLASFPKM

Sequence of Cathepsin L (P07711 114-333, species assumed): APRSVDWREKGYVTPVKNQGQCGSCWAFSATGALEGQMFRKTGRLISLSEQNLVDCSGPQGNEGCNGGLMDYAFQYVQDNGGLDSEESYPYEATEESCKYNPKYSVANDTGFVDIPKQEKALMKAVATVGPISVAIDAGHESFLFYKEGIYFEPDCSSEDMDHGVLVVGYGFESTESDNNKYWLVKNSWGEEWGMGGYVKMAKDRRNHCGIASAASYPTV

Row | SMILES | Ki (Cathepsin L) [nM] | Ki (Calpain) [nM] | Ki (Cathepsin B) [µM] | IC50 (SMA) [nM] | IC50 (Collagen) [µM] | IC50 [1] [µM] | IC50 (MERS WT) [µM] | IC50 [2] [µM] | Ki (Cat S) [nM] | Ki (Cat K) [nM]
1 | CCC(C)C(NC(=O)C(CC(C)C)NC(=O)OCc1ccccc1)C(=O)C(=O)NC(Cc1ccc2ccccc2c1)C(N)=O (stereo not shown) [PHELIX309, benzyl (1-((1-((1-amino-3-(naphthalen-2-yl)-1-oxopropan-2-yl)amino)-4-methyl-1,2-dioxohexan-3-yl)amino)-4-methyl-1-oxopentan-2-yl)carbamate] | 9.76 | 1.34 | > 10 | 2000 | 2.7 | – | – | – | – | –
2 | CCC(C)C(NC(=O)C(CC(C)C)NC(=O)CN1CCOCC1)C(=O)C(=O)NCC(=O)NC(Cc1ccc2ccccc2c1)C(N)=O (stereo not shown) [PHELIX314, N-(2-((1-amino-3-(naphthalen-2-yl)-1-oxopropan-2-yl)amino)-2-oxoethyl)-4-methyl-3-(4-methyl-2-(2-morpholinoacetamido)pentanamido)-2-oxohexanamide] | 3.06 | 2.44 | 0.387 | 1200 | – | – | – | – | – | –
3 | CCC(C)C(NC(=O)C(CC(C)C)NC(=O)OCc1ccccc1)C(=O)C(=O)N1CC(C(=O)NC(Cc2ccc3ccccc3c2)C(N)=O)C1 (stereo not shown) [PHELIX297, benzyl (1-((1-(3-((1-amino-3-(naphthalen-2-yl)-1-oxopropan-2-yl)carbamoyl)azetidin-1-yl)-4-methyl-1,2-dioxohexan-3-yl)amino)-4-methyl-1-oxopentan-2-yl)carbamate] | 42.4 | 39.9 | 0.235 | 3400 | 3.8 | – | – | – | – | –
4 | CC[C@H](C)[C@H](NC(=O)C(=O)C(Cc1ccccc1)NC(=O)C(Cc1ccccc1)NC(=O)Cc1ccccc1)C(=O)N1CCCC1C(N)=O (stereo partly shown) [PHELIX204, 1-((2-oxo-4-phenyl-3-(3-phenyl-2-(2-phenylacetamido)propanamido)butanoyl)isoleucyl)pyrrolidine-2-carboxamide] | 0.01 | 204 | 0.277 | – | – | 0.42 | 1.8 | 0.13 | 0.44 | 9.3
